Laboratory results: the METLIN SMRT retention time set (Domingo-Almenara et al. 2019)

Experiment: gradient 5% acetonitrile 3 min, to 50% in 2 min, to 85% in 15 min, held 3 min, 100 µL/min
Conditions: column: Zorbax Extend-C18 2.1 x 50 mm; eluents: water / acetonitrile, 0.1% formic acid
Outline: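 Pure standards were run in mixtures of ~100 molecules by HPLC coupled to a quadrupole time-of-flight mass spectrometer. The column was a Zorbax Extend-C18 (2.1 × 50 mm, 1.8 μm) at 100 μL/min, with water and acetonitrile each containing 0.1% formic acid, in positive and negative ionization mode. Dead and dwell volumes were 40 μL and 900 μL. Retention time was taken from computationally picked adduct peaks, each manually inspected, with data collected over 3 months.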

SMILES	RP-LC retention time [s]
CC(C)(NC(=O)C1CCC1)c1nc2c(c(C(N)=O)n1)OCCO2	586
COc1cccc(C#N)c1OCC(N)=O	592
CC1(C(=O)NCc2ccccc2)CN(S(=O)(=O)c2ccccc2)CC(=O)N1C1CCCCCC1 (configuration not stated)	1060
O=C1NCCCCCN(C(=O)c2ccc(Cn3ccnc3)o2)[C@H]2CCC[C@@H]12	567
CN(C)CCN(Cc1ccco1)C(=O)Cn1nc(Cc2ccncc2)c2ccccc2c1=O	548
Cc1cc(NC(=O)C(C)Oc2ccc(-c3cnc4ccccc4n3)cc2)no1 (configuration not stated)	890
CCCCN1CCN(S(=O)(=O)c2cc(-c3nnc(C(C)C)o3)co2)CC1	652
O=C(c1cc2ccccc2[nH]1)N1CCC(Cn2c(C(F)(F)F)nc3ccccc32)CC1	881
CCCCC(=O)Nc1ccc(OCc2cc(C(=O)NC3CC3)no2)cc1	798
COc1ccc(-c2cn3c(CC(=O)Nc4cc(F)ccc4F)csc3n2)cc1OC	744
Cc1ccc(CNC(=O)Cc2nnc(-c3ccc4ncccc4c3)o2)cc1	832
CCOc1ccccc1CNC(=O)C1CCCN(c2ccc(=O)n(-c3ccc(CC)cc3)n2)C1 (configuration not stated)	978
CCOc1ccccc1C(=O)Nc1ccc2c(c1)N(CCOC)CCC2	1060
Cn1cc(C(=O)NCCn2ncccc2=O)nn1	520
CC(C)NC(=O)CN1CCN(c2ncc(C(=O)Nc3ccccc3)c(N)n2)CC1	609
CCOc1ccc(C(=O)Nc2cccnc2)nn1	552
CCOc1ccc(-c2noc(Cn3cnc4c(cnn4-c4ccccc4)c3=O)n2)cc1OC	980
CC(C)C(=O)N1CCc2cc(C(=O)N3CCCC3)ccc21	720
O=C(Nc1ccccc1F)N1CC(c2nc(CCOCC3CC3)no2)C1	786
CCCc1noc(-c2ccc3nnc(CC(=O)Nc4ccc(F)cc4)n3c2)n1	848
COc1ccc(CN2N=C(C(=O)N3CCCC3)S(=O)(=O)c3ccccc32)cc1	823
Cc1oc(-c2ccc(C(=O)NCCCN3CCOCC3)cc2)nc1CSc1ccccc1	685
C=CCN1CCN(c2ccc3nnc(CCc4nc(-c5ccccc5OC)no4)n3n2)CC1	573
O=C(CN1CCc2ccccc2C1C(=O)N1CCCCC1)NCc1cccc(Cl)c1 (configuration not stated)	913
Cc1cccc(OCc2nc(-c3cccc(-c4ccn[nH]4)c3)no2)c1	999

Results, then the compound that gave them:

RP-LC retention time [s]	SMILES
827	CCC(=O)N1CCCC(c2ccnc(Nc3ccc(C)cc3)n2)C1 (configuration not stated)
723	CCOc1ccccc1NC(=O)Cn1cnc2nc(N3CCCC(C(=O)NC4CC4)C3)sc2c1=O (configuration not stated)
826	O=C(C1CCN(c2nc3ccc(-c4cccs4)nc3s2)CC1)N1CCOCC1
626	Cc1ccc2c(=O)c3c([nH]c2c1C)CCN(CC(=O)Nc1ccc(F)cc1)C3
587	CCc1cc(=O)n(CC(=O)Nc2ccc(N(C)C)cc2)c(N2CCOCC2)n1
1050	Cc1ccc(-c2cc(C(=O)NC3CCC(C)CC3)c(C)[nH]2)cc1 (configuration not stated)
851	CCCNC(=O)C1CCN(c2nc3ccc(-c4ccsc4)nc3s2)CC1
591	Cn1c(N2CCCC(C(=O)NCCN3CCN(c4ccccc4F)CC3)C2)cc(=O)n(C)c1=O (configuration not stated)
708	Cc1ccccc1NC(=O)NCCc1nc2cccnc2n1C1CCCC1
662	Cc1ccsc1C(=O)N1CCC(n2cnnc2-c2ccccc2)C1 (configuration not stated)
1090	CCC(c1cccs1)N1C(=O)[C@H]2CN(S(=O)(=O)c3cc(C)ccc3C)C[C@H]2C1=O (some centres not stated)
637	Cc1nc2cccnc2n1C1CCN(C(=O)Nc2ccccc2Br)CC1
